Measured values published in PMC8597634, “4-Iminooxazolidin-2-One as a Bioisostere of Cyanohydrin Suppresses EV71 Proliferation by Targeting 3C^pro” (Microbiology Spectrum, 2021).
Read-outs that look alike come from different tables or passages of the source.

What was measured:
EV71 [1] = settings: cited from earlier work
EV71 3C^pro [2] = molecular target: T1, EV71 3C^pro (Human enterovirus 71, UniProt Q66478); assay: Inhibitor constant (Ki) enzymatic FRET assay; format: biochemical; settings: 0.5 μM EV71 3C^pro, 100 μM peptide, 2 h
T1 construct: The EV71 3C^pro plasmid was amplified and linked into a pET-28a vector; 6xHis; made in house; host or cells: Escherichia coli
Method: The inhibitor constants (Kis) were determined by fluorescence resonance energy transfer (FRET) using NMA-IEALFQGPPK(DNP)FR peptide. The assays were performed with 50 mM Tris-HCl–150 mM NaCl (pH 7.0) with 0.5 μM EV71 3C^pro and gradient-diluted FOPMC/FIOMC. Subsequently, 100 μM each peptide was hydrolyzed for 2 h. The fluorescence signals were monitored at a microplate reader (Perkin Elmer, USA).

[3] = test system: EV71 genotype C Fuyang virus; assay: qRT-PCR of viral genome replication, EV71 Fuyang virus in RD cells; format: cell-based; settings: Enterovirus A, 24 hpi
Method: (§1) The viral genome replication inhibition in host cells after treatment with FOPMC and FIOMC was monitored by EV71 genotype C Fuyang virus. Briefly, RD cells were cultured at 1.5 × 10^5 per well at 37°C for 24 h and then incubated with gradient-diluted FOPMC, FIOMC, and virus. The intracellular RNAs were extracted using TRIzol (TransGen, China) after 24 hpi. The real-time quantitative PCR (qRT-PCR) assays were performed with a SYBR RT-PCR kit (Bio-Rad, USA) for the EV71 5′ […] region (UTR) and the host GAPDH. The transcript copies of EV71 5′ UTR and GAPDH were calculated using the threshold cycle (ΔΔCT) method ([35]).

EV71-luciferase virus [4] = assay: EC50 with EV71-luciferase virus on RD cells; format: cell-based; settings: Enterovirus A, 24 h
Method: (§2) One hundred microliters each of RD (3 × 10^5 cells/ml), VeroE6 (3 × 10^5 cells/ml), and HEK-293T cells (2 × 10^5 cells/ml) was cultured overnight. Each 96-well plate of cells was treated with EV71-luciferase virus and diluted FOPMC/FIOMC (diluted from 3 nM to 20 μM) for 24 h. The luciferase signals were tested using the firefly luciferase kit (Promega, USA). All of the EC50s were profiled by Graph Pad Prism 7.0.

EV71-luciferase virus [5] = assay: EC50 with EV71-luciferase virus on HEK-293T cells; format: cell-based; settings: Enterovirus A, EV71, HEK-293T, 24 h
Method: as §2

EV71-luciferase virus [6] = assay: EC50 with EV71-luciferase virus on VeroE6 cells; format: cell-based; settings: Enterovirus A, EV71, Vero C1008, 24 h
Method: as §2

RD cells = assay: Cytotoxicity (CellTiter-Glo) on RD cells; format: cell-based, human; settings: even at 200 μM, 48 h
Method: (§3) Determination of the cytotoxicity of FOPMC and FIOMC was performed on three cell lines using a CellTiter-Glo kit (Promega, USA). Briefly, RD, VeroE6, and HEK-293T cells were treated with gradient dilutions of […] (from 0.78 to 200 μM) for 48 h. CellTiter-Glo reagents were applied to evaluate the cells' viability by a microplate reader.

HEK-293T cells = assay: Cytotoxicity (CellTiter-Glo) on HEK-293T cells; format: cell-based; settings: even at 200 μM, 48 h
Method: as §3

VeroE6 cells = assay: Cytotoxicity (CellTiter-Glo) on VeroE6 cells; format: cell-based; settings: even at 200 μM, 48 h
Method: as §3

EV71-A = assay: Antiviral activity by qRT-PCR in RD cells, EV71-A; format: cell-based; settings: Enterovirus A
Method: as §1
(§4) To evaluate the antiviral effect of FOPMC and FIOMC on various viral strains, we measured the EC50s of these two inhibitors on five virus strains. RD cells were treated with FOPMC/FIOMC (0.003 to 50 μM) and each viral strain for 2 h. The antiviral activity was conducted by qRT-PCR according to the method described above.

EV71-B = assay: Antiviral activity by qRT-PCR in RD cells, EV71-B; format: cell-based; settings: Enterovirus A
Method: as §1, §4

EV71-C = assay: Antiviral activity by qRT-PCR in RD cells, EV71-C; format: cell-based; settings: Enterovirus A
Method: as §1, §4

CVA16 = assay: Antiviral activity by qRT-PCR in RD cells, CVA16; format: cell-based, coxsackievirus A16; settings: Enterovirus A
Method: as §1, §4

CVB3 = assay: Antiviral activity by qRT-PCR in RD cells, CVB3; format: cell-based, coxsackievirus B3; settings: Enterovirus B
Method: as §1, §4

five viral strains = assay: Antiviral activity on five viral strains (summary in discussion); format: cell-based; settings: read-out: EC50s depending on the specific virus
Method: as §4

EV71-GFP = assay: Phenotype assay with EV71-GFP reporter virus in RD cells; format: cell-based; settings: 0.16 to 20 μM, 24 h
Method: RD cells (3 × 10^4 per well) were cultured in 96-well plates overnight. Diluted compounds (0.16 to 20 μM) and EV71-GFP reporter virus were added to RD cells. After 24 hpi, the GFP was monitored using confocal microscopy (Olympus, Japan).

EV71 VP1 = assay: Expression of EV71 VP1 in RD cells; format: cell-based; settings: GAPDH invariable
EV71-luciferase virus [7] = assay: Time-of-addition assay with EV71-luciferase virus in RD cells; format: cell-based; settings: −6 to 10 hpi, FOPMC 5 μM, FIOMC 5 μM, GPP3 1 μM
pEV71-replicon RNA = pEV71-replicon RNA assay in RD cells; format: cell-based, EV71; settings: RD cells transfected with pEV71-replicon RNA, 5 μM
Method: RD cells (3 × 10^4 per well) were treated with FOPMC (5 μM), FIOMC (5 μM), GPP3 (1 μM), NK-1.8k (2 μM), and EV71-luciferase virus, respectively. Another plate of RD cells was treated with the same concentrations of the four inhibitors and transfected with pEV71-replicon RNA. After 24 hpi, the luciferase activity was determined using Bright-Glo luciferase substrate (Promega, USA).

EV71 3C^pro [8] = molecular target: T1, EV71 3C^pro; assay: Hydrolytic activity inhibition of EV71 3C^pro on precursor 3BC (SDS-PAGE); format: biochemical; settings: 100 μM 3C^pro, molar ratio 1:5, GST-3BC-C147A 50 μM
Method: To ascertain whether FOPMC and FIOMC inactivated EV71 3C^pro to hydrolyze the precursor 3BC, the fusion protein GST-3BC with a catalytic central residue C147A mutation was expressed. A 100 μM concentration of EV71 3C^pro and FOPMC/FIOMC (at a molar ratio of 1:5) was incubated at 30°C for 2 h. GST-3BC (50 μM) protein was added for another 4 h, and the reagents were analyzed using SDS-PAGE.

EV71 [9] = assay: Selection of resistant virus by continuous culture of EV71; format: cell-based; settings: EV71 cultured for 20 rounds, sequence analyses
[10] = cited from earlier work
[11] = cited from earlier work; remark: listed apart in the source
EV-D68 = test system: EV-D68; parameters: method as in PMID 25554786; settings: cited from earlier work
HRV = test system: HRV; parameters: method as in PMID 20066739, PMID 21536800, PMID 23295352, PMID 23633597; settings: cited from earlier work

In the case of C[C@@H]1O[C@@H](OC[C@H]2O[C@@H](Oc3c(-c4ccc(O)c(O)c4)oc4cc(O)cc(O)c4c3=O)[C@H](O)[C@@H](O)[C@@H]2O)[C@H](O)[C@H](O)[C@H]1O [rutin], the EC50 (EV71 [1]; anti-EV71 activity) is given as 110000 nM.

In the case of O=c1c(O)c(-c2ccc(O)c(O)c2)oc2cc(O)cc(O)c12 [quercetin], the EC50 (EV71 [1]; EV71) is given as 12100 nM.

Cc1cc(C(=O)NC(Cc2ccc(F)cc2)C(=O)NC(CC2CCCNC2=O)C2OC(=O)N(C(C)C)C2=N)no1 (stereo not shown) [FIOMC] showed a Ki (EV71 3C^pro [2]) of 33 ± 8 nM, an EC50 [3] of 67 ± 1 nM and an EC50 (EV71-luciferase virus [4]) of 92 ± 3 nM. For the same compound, the EC50 (EV71-luciferase virus [5]) was 93 ± 7 nM, the EC50 (EV71-luciferase virus [6]) was 104 ± 8 nM and the Cytotoxicity (RD cells) was “no apparent cytotoxic effect”. The Cytotoxicity (HEK-293T cells) was “no apparent cytotoxic effect”, the Cytotoxicity (VeroE6 cells) was “no apparent cytotoxic effect” and the EC50 (EV71-A) was 96 ± 1 nM. The EC50 (EV71-B) was 102 ± 9 nM, the EC50 (EV71-C) was 75 ± 3 nM and the EC50 (CVA16) was 125 ± 2 nM. The EC50 (CVB3) was 80 ± 4 nM, the EC50 (five viral strains) was 80 to 125 nM and the “replication of EV71-GFP in phenotype screen” value (EV71-GFP) was “positive results”. The “expression of EV71 VP1” value (EV71 VP1) was “inhibited”, the “inhibitory effect by time of addition” value (EV71-luciferase virus [7]) was “valid inhibitory effects regardless of the time” and the effect on replicon (pEV71-replicon RNA) was “impacted the virus replication stage”. For the same compound, the “hydrolysis of 3BC by 3C^pro” value (EV71 3C^pro [8]) was “distinctly restrained the hydrolysis”, the “resistance mutation after continuous culture” value (EV71 [9]) was “no mutation of EV71 virus” and the “half-life [t1/2] in human plasma” value [10] was “exceed 120 min”. For the same compound, the “t1/2 in mouse plasma” value [11] was “exceed 120 min”.

In the case of Cc1cc(CCCOc2c(C)cc(-c3noc(C(F)(F)F)n3)cc2C)on1 [pleconaril], the EC50 (EV-D68) is given as 430 nM.

For CCOC(=O)/C=C/[C@H](C[C@@H]1CCNC1=O)NC(=O)[C@@H](CC(=O)[C@@H](NC(=O)c1cc(C)on1)C(C)C)Cc1ccc(F)cc1 [AG7088], the EC50 (HRV) is listed as 13 nM and the EC50 (EV71 [1]; EV71) is listed as 1670 nM.

For O=c1c(O)c(-c2ccc(O)c(O)c2)oc2cc(O)ccc12 [Fisetin], the EC50 (EV71 [1]; anti-EV71 activity) is given as 85000 nM.

Compound CCCN1C(=N)C(C(CC2CCCNC2=O)NC(=O)C(Cc2ccc(F)cc2)NC(=O)c2cc(C)on2)OC1=O (stereo not shown) [FOPMC] has a Ki (EV71 3C^pro [2]) of 83 ± 1 nM, an EC50 [3] of 123 ± 4 nM and an EC50 (EV71-luciferase virus [4]) of 244 ± 12 nM. The EC50 (EV71-luciferase virus [5]) was 299 ± 28 nM, the EC50 (EV71-luciferase virus [6]) was 202 ± 15 nM and the Cytotoxicity (RD cells) was “no apparent cytotoxic effect”. The Cytotoxicity (HEK-293T cells) was “no apparent cytotoxic effect”, the Cytotoxicity (VeroE6 cells) was “no apparent cytotoxic effect” and the EC50 (EV71-A) was 115 ± 2 nM. The EC50 (EV71-B) was 135 ± 4 nM, the EC50 (EV71-C) was 128 ± 9 nM and the EC50 (CVA16) was 217 ± 14 nM. For the same compound, the EC50 (CVB3) was 210 ± 5 nM, the “replication of EV71-GFP in phenotype screen” value (EV71-GFP) was “positive results” and the “expression of EV71 VP1” value (EV71 VP1) was “inhibited”. The “inhibitory effect by time of addition” value (EV71-luciferase virus [7]) was “valid inhibitory effects regardless of the time”, the effect on replicon (pEV71-replicon RNA) was “impacted the virus replication stage” and the “hydrolysis of 3BC by 3C^pro” value (EV71 3C^pro [8]) was “distinctly restrained the hydrolysis”. For the same compound, the “resistance mutation after continuous culture” value (EV71 [9]) was “no mutation of EV71 virus”, the “half-life [t1/2] in human plasma” value [10] was “exceed 120 min” and the “t1/2 in mouse plasma” value [11] was “exceed 120 min”.

In the case of O=c1cc(-c2ccc(O)c(O)c2)oc2cc(O[C@@H]3O[C@H](CO)[C@@H](O)[C@H](O)[C@H]3O)cc(O)c12 [Luteoloside], the EC50 (EV71 [1]; cytopathy caused by EV71 infection) is listed as 430000 nM.

In the case of CCON=Cc1ccc(OCCC(C)CCN2CCN(c3ccncc3)C2=O)cc1 (stereo not shown) [GPP3, reference compound], the “inhibitory effect by time of addition” value (EV71-luciferase virus [7]) is reported as “dramatically decreased from 4 hpi”.

In the case of Cc1cc(C(=O)NC(Cc2ccc(F)cc2)C(=O)NC(CC2CCCNC2=O)C(O)C#N)no1 [(R)-1, reference compound], the “half-life [t1/2] in human plasma” value [10] is given as 11 min.
